The values that follow come from patent publication US8435980B2 (AbbVie Inc., priority 2009, dated 2013).

Some results are limits rather than exact numbers.

T1 sequence (O00311 whole entry): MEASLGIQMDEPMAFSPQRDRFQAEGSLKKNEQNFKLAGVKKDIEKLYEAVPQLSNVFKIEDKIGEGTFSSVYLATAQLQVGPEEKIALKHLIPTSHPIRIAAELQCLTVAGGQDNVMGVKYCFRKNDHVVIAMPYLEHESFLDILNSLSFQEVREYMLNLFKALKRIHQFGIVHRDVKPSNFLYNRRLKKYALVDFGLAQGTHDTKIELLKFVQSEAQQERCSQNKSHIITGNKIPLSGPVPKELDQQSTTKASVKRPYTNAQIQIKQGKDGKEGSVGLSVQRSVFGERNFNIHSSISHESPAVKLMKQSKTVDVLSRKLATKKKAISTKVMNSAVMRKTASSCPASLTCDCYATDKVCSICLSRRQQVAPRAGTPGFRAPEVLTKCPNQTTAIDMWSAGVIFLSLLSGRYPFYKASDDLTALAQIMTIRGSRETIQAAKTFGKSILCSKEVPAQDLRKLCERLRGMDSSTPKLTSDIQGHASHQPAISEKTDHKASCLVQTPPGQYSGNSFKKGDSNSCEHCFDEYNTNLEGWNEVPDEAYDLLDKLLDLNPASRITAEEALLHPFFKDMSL
T1 sequence (Q9UBU7 whole entry partner): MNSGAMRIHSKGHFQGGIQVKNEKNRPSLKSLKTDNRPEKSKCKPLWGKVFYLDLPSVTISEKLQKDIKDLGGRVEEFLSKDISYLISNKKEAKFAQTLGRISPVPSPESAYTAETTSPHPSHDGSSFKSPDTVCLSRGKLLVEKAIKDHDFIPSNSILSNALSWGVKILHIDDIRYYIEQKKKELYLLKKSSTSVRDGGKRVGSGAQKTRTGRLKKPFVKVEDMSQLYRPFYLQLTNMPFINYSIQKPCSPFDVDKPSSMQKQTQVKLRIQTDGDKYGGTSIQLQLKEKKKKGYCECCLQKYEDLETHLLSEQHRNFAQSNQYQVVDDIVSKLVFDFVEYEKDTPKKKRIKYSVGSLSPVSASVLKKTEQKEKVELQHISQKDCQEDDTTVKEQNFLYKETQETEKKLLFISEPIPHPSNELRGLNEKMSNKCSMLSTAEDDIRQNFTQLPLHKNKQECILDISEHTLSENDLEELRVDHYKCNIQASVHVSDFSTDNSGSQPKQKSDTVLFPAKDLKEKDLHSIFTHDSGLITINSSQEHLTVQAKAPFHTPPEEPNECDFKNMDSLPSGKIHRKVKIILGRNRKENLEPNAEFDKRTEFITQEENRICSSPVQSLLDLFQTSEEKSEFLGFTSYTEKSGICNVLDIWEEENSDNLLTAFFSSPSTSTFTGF

The test has as its target T1, Cdc7 (BEV coexpressed huCDC7/DBF4) (Homo sapiens, UniProt O00311).
T1 construct: made in house; host or cells: BEV (baculovirus expression vector) co-expression; insect cells are implied but no cell line is named
Briefly: Cdc7 enzyme inhibition assay ([33P]ATP, biotinylated peptide substrate, FlashPlate). The format is biochemical. The settings on record: Table 3; enzyme inhibition data (Ki). The method, then: Cdc7 (BEV coexpressed huCDC7/DBF4) is prepared internally. Cdc7 assays are conducted as follows with final concentrations as listed. […] Reactions are quenched after 1 hr by the addition of 90 μL stop buffer (50 mM EDTA, 2M NaCl). […] (Ki) for exemplary compounds.
As for `Clc1cc(-c2c[nH]c3ncccc23)cc(NCCc2cccnc2)n1` [Example 378, 6-chloro-N-[2-(pyridin-3-yl)ethyl]-4-(1H-pyrrolo[2,3-b]pyridin-3-yl)pyridin-2-amine], the Ki was less than 10 nM.

With `NC1CCC(N2CCC(Nc3cc(-c4c[nH]c5ncccc45)cc(Cl)n3)CC2)CC1` (centres unmarked) [Example 379, N-[1-(4-aminocyclohexyl)piperidin-4-yl]-6-chloro-4-(1H-pyrrolo[2,3-b]pyridin-3-yl)pyridin-2-amine], the inhibitory constant (Ki) is less than 10 nM. Under `CN1CCC(C2CCC(N(C)c3cc(-c4c[nH]c5ncccc45)cc(Cl)n3)CC2)C1` (centres unmarked) [Example 380, 6-chloro-N-methyl-N-[4-(1-methylpyrrolidin-3-yl)cyclohexyl]-4-(1H-pyrrolo[2,3-b]pyridin-3-yl)pyridin-2-amine] stands less than 10 nM; under `O=C(N[C@H]1CC[C@H](Nc2cc(-c3c[nH]c4ncccc34)cc(Cl)n2)CC1)C1CN(Cc2ccccc2)C1` [Example 381, 1-benzyl-N-(trans-4-{[6-chloro-4-(1H-pyrrolo[2,3-b]pyridin-3-yl)pyridin-2-yl]amino}cyclohexyl)azetidine-3-carboxamide], less than 10 nM; under `COc1cc(Cl)ccc1C(=O)N[C@H]1CC[C@H](Nc2cc(-c3c[nH]c4ncccc34)cc(Cl)n2)CC1` [Example 382, 4-chloro-N-(trans-4-{[6-chloro-4-(1H-pyrrolo[2,3-b]pyridin-3-yl)pyridin-2-yl]amino}cyclohexyl)-2-methoxybenzamide], less than 10 nM. Under `O=C(N[C@H]1CC[C@H](Nc2cc(-c3c[nH]c4ncccc34)cc(Cl)n2)CC1)c1cccc(C(F)(F)F)c1` [Example 383, N-(trans-4-{[6-chloro-4-(1H-pyrrolo[2,3-b]pyridin-3-yl)pyridin-2-yl]amino}cyclohexyl)-3-(trifluoromethyl)benzamide] stands less than 10 nM; under `Clc1cnc2[nH]cc(-c3cc(Cl)nc(NC4CCCCC4)c3)c2c1` [Example 384, 6-chloro-4-(5-chloro-1H-pyrrolo[2,3-b]pyridin-3-yl)-N-cyclohexylpyridin-2-amine], 10 to 100 nM; under `O=C(N[C@H]1CC[C@H](Nc2cc(-c3c[nH]c4ncccc34)cc(Cl)n2)CC1)c1cccc(Cl)c1` [Example 385, 3-chloro-N-(trans-4-{[6-chloro-4-(1H-pyrrolo[2,3-b]pyridin-3-yl)pyridin-2-yl]amino}cyclohexyl)benzamide], less than 10 nM. Under `COc1ccc(CNc2cc(-c3c[nH]c4ncccc34)cc(Cl)n2)cc1OC` [Example 386] stands 10 to 100 nM; under `Clc1cc(-c2c[nH]c3ncccc23)cc(NCCc2ccccn2)n1` [Example 387, 6-chloro-N-[2-(pyridin-2-yl)ethyl]-4-(1H-pyrrolo[2,3-b]pyridin-3-yl)pyridin-2-amine], less than 10 nM; under `Clc1cc(-c2c[nH]c3ncccc23)cc(NCCc2ccccc2)n1` [Example 388, 6-chloro-N-(2-phenylethyl)-4-(1H-pyrrolo[2,3-b]pyridin-3-yl)pyridin-2-amine], less than 10 nM.

With `CN1CCN(CCCNc2cc(-c3c[nH]c4ncccc34)cc(Cl)n2)CC1` [Example 389, 6-chloro-N-[3-(4-methylpiperazin-1-yl)propyl]-4-(1H-pyrrolo[2,3-b]pyridin-3-yl)pyridin-2-amine], the inhibitory constant (Ki) fell in the range of 10 to 100 nM. Turning to `Clc1cc(-c2c[nH]c3ncccc23)cc(NCCOc2ccccc2)n1` [Example 390, 6-chloro-N-(2-phenoxyethyl)-4-(1H-pyrrolo[2,3-b]pyridin-3-yl)pyridin-2-amine], the Ki is less than 10 nM.

For the molecule `CN(C)CCCNc1cc(-c2c[nH]c3ncccc23)cc(Cl)n1` [Example 391, N′-[6-chloro-4-(1H-pyrrolo[2,3-b]pyridin-3-yl)pyridin-2-yl]-N,N-dimethylpropane-1,3-diamine], the Ki was less than 10 nM.

In turn, `Clc1cc(-c2c[nH]c3ncccc23)cc(NC2CCN(Cc3ccccc3)C2)n1` (centres unmarked) [Example 392, N-(1-benzylpyrrolidin-3-yl)-6-chloro-4-(1H-pyrrolo[2,3-b]pyridin-3-yl)pyridin-2-amine] gave a Ki of less than 10 nM. With `O=C(NCCS(=O)(=O)N[C@H]1CC[C@H](Nc2cc(-c3c[nH]c4ncccc34)cc(Cl)n2)CC1)c1ccc(F)cc1F` [Example 393, N-{2-[(trans-4-{[6-chloro-4-(1H-pyrrolo[2,3-b]pyridin-3-yl)pyridin-2-yl]amino}cyclohexyl)sulfamoyl]ethyl}-2,4-difluorobenzamide] the figure was less than 10 nM.

`O=C(N[C@H]1CC[C@H](Nc2cc(-c3c[nH]c4ncccc34)cc(Cl)n2)CC1)C1CN(Cc2cccc(C(F)(F)F)c2)C1` [Example 394, N-(trans-4-{[6-chloro-4-(1H-pyrrolo[2,3-b]pyridin-3-yl)pyridin-2-yl]amino}cyclohexyl)-1-[3-(trifluoromethyl)benzyl]azetidine-3-carboxamide]: the inhibition constant (Ki) was less than 10 nM. `O=C(N[C@H]1CC[C@H](Nc2cc(-c3c[nH]c4ncccc34)cc(Cl)n2)CC1)C1CN(Cc2ccc(Cl)cc2Cl)C1` [Example 395, N-(trans-4-{[6-chloro-4-(1H-pyrrolo[2,3-b]pyridin-3-yl)pyridin-2-yl]amino}cyclohexyl)-1-(2,4-dichlorobenzyl)azetidine-3-carboxamide] yielded an inhibition constant (Ki) of less than 10 nM. The molecule `COc1ccc(CNc2cc(-c3c[nH]c4ncccc34)cc(Cl)n2)cc1` [Example 397, 6-chloro-N-(4-methoxybenzyl)-4-(1H-pyrrolo[2,3-b]pyridin-3-yl)pyridin-2-amine] showed a Ki of less than 10 nM. Turning to `Oc1ccc(CCNc2cc(-c3c[nH]c4ncccc34)cc(Cl)n2)cc1` [Example 398, 4-(2-{[6-chloro-4-(1H-pyrrolo[2,3-b]pyridin-3-yl)pyridin-2-yl]amino}ethyl)phenol], the Ki is less than 10 nM.

For `Clc1cc(-c2c[nH]c3ncccc23)cc(NCCc2ccc3c(c2)OCO3)n1` [Example 399, N-[2-(1,3-benzodioxol-5-yl)ethyl]-6-chloro-4-(1H-pyrrolo[2,3-b]pyridin-3-yl)pyridin-2-amine], the Ki was less than 10 nM.

Regarding `Clc1cc(-c2c[nH]c3ncccc23)cc(NCc2ccc3c(c2)OCO3)n1` [Example 400, N-(1,3-benzodioxol-5-ylmethyl)-6-chloro-4-(1H-pyrrolo[2,3-b]pyridin-3-yl)pyridin-2-amine], the inhibition constant Ki is less than 10 nM.

Molecule `COc1ccc(CCNc2cc(-c3c[nH]c4ncccc34)cc(Cl)n2)cc1` [Example 401, 6-chloro-N-[2-(4-methoxyphenyl)ethyl]-4-(1H-pyrrolo[2,3-b]pyridin-3-yl)pyridin-2-amine] registered an inhibitory constant (Ki) of less than 10 nM. With `Clc1cc(-c2c[nH]c3ncccc23)cc(NC2CCN(Cc3ccccc3)CC2)n1` [Example 402, N-(1-benzylpiperidin-4-yl)-6-chloro-4-(1H-pyrrolo[2,3-b]pyridin-3-yl)pyridin-2-amine] the figure was less than 10 nM; with `Clc1cc(-c2c[nH]c3ncccc23)cc(NCCc2ccncc2)n1` [Example 403, 6-chloro-N-[2-(pyridin-4-yl)ethyl]-4-(1H-pyrrolo[2,3-b]pyridin-3-yl)pyridin-2-amine], less than 10 nM. On to `Clc1cc(-c2c[nH]c3ncccc23)cc(NC2Cc3ccccc3C2)n1` [Example 404, 6-chloro-N-(2,3-dihydro-1H-inden-2-yl)-4-(1H-pyrrolo[2,3-b]pyridin-3-yl)pyridin-2-amine], for which the inhibition constant (Ki) is less than 10 nM.

Broadly, the Ki is a dissociation constant, usually derived from enzyme kinetics or from competition with a known ligand. Low readings indicate higher affinity, high ones lower affinity.
